IC50 data for 13 compounds are collected here from US20120323002A1, “IMIDAZOPYRIDAZINE COMPOUNDS” (AJINOMOTO CO., INC., priority 2009, published 2012).

For this test, the system named is IL-12p70 (IL-12p35/p40 complex). In words: Cytokine inhibiting action using mouse peritoneal macrophages: IL-12p70 production (ELISA). It is filed as cell-based, mouse (female Balb/c). As to conditions: Peritoneal macrophage, 100 ng/mL mouse interferon-γ + 0.05% (v/v) SAC, incubated overnight, 50% production inhibition concentration. As for the experimental part:
1 mL of a 3% (w/v) thioglycolate solution was intraperitoneally administered to a mouse (female Balb/c). 5 or 6 days later, the peritoneal cells of the mouse were collected, and the adherent cells were used for evaluation. 100 ng/mL of mouse interferon-γ, a 0.05% (v/v) suspension of killed Staphylococcus aureus Cowan I strain (SAC) and a compound of the present invention were added thereto and incubated overnight. After the incubation, the survival rate was measured, and each of IL-12p70 (IL-12p35/p40 complex) and TNF-α was quantified by ELISA using the collected culture supernatant to calculate the 50% production inhibition concentration (IC50) (refer to Table 1; meanwhile, the blanks in the table indicate unmeasured).

`Cc1ccc(/C=N/Nc2cc(N3CCOCC3)c3nc(-c4ccncc4)cn3n2)o1` [Compound 13, N-(5-methyl-furan-2-yl-methylidene)-N′-(8-morpholin-4-yl-2-pyridin-4-yl-imidazo[1,2-b]pyridazin-6-yl)-hydrazine]: the IC50 was 190 nM.

As to `Cc1cccc(/C=N/Nc2cc(N3CCOCC3)c3nc(-c4cnn(-c5ccccc5)c4C)cn3n2)c1` [Compound 5, N-(3-methyl-benzylidene)-N′-[2-(5-methyl-1-phenyl-1H-pyrazol-4-yl)-8-morpholin-4-yl-imidazo[1,2-b]pyridazin-6-yl]-hydrazine], the IC50 amounted to 33 nM.

Turning to `C(=N\Nc1cc(N2CCOCC2)c2nc(-c3ccccc3)cn2n1)/c1c[nH]c2ccccc12` [Compound 2, N-(1H-indol-3-yl-methylidene)-N′-(8-morpholin-4-yl-2-phenyl-imidazo[1,2-b]pyridazin-6-yl)-hydrazine], the IC50 came out at 36 nM.

Regarding `C(=N\Nc1cc(N2CCOCC2)c2nc(-c3ccncc3)cn2n1)/c1ccc2cc[nH]c2c1` [Compound 15, N-(1H-indol-6-yl-methylidene)-N′-(8-morpholin-4-yl-2-pyridin-4-yl-imidazo[1,2-b]pyridazin-6-yl)-hydrazine], the half-inhibitory concentration (IC50) came out at 54 nM.

For `CC(=O)c1cccc(/C=N/Nc2cc(N3CCOCC3)c3nc(-c4ccncc4)cn3n2)c1` [Compound 17, N-(3-acetyl-benzylidene)-N′-(8-morpholin-4-yl-2-pyridin-4-yl-imidazo[1,2-b]pyridazin-6-yl)-hydrazine], the concentration for half-maximal inhibition (IC50) came out at 37 nM.

Regarding `Cc1ccc(/C=N/Nc2cc(N3CCOCC3)c3nc(-c4ccncc4)cn3n2)[nH]1` [Compound 24, N-(5-methyl-1H-pyrrol-2-ylmethylene)-N-(8-morpholin-4-yl-2-pyridin-4-yl-imidazo[1,2-b]pyridazin-6-yl)-hydrazine], the half-maximal inhibitory concentration (IC50) is 370 nM.

Regarding `C=Cc1cccc(/C=N/Nc2cc(N3CCOCC3)c3nc(-c4ccncc4)cn3n2)c1` [Compound 19, N-(3-vinyl-benzylidene)-N-(8-morpholin-4-yl-2-pyridin-4-yl-imidazo[1,2-b]pyridazin-6-yl)-hydrazine], the IC50 was 6.4 nM.

For the compound `Cc1[nH]c2ccc(/C=N/Nc3cc(N4CCOCC4)c4nc(-c5ccncc5)cn4n3)cc2c1C` [Compound 12, N-(2,3-dimethyl-1H-indol-5-yl-methylidene)-N′-(8-morpholin-4-yl-2-pyridin-4-yl-imidazo[1,2-b]pyridazin-6-yl)-hydrazine], the IC50 was 140 nM.

Consider `C(=N\Nc1cc(N2CCOCC2)c2nc(-c3ccncc3)cn2n1)/c1c[nH]c2ccccc12` [Compound 6, N-(1H-indol-3-yl-methylidene)-N′-(8-morpholin-4-yl-2-pyridin-4-yl-imidazo[1,2-b]pyridazin-6-yl)-hydrazine], for which the IC50 amounted to 92 nM.

As for `C=C(C)c1cccc(/C=N/Nc2cc(N3CCOCC3)c3nc(-c4ccncc4)cn3n2)c1` [Compound 16, N-(3-isopropenyl-benzylidene)-N′-(8-morpholin-4-yl-2-pyridin-4-yl-imidazo[1,2-b]pyridazin-6-yl)-hydrazine], the 50% inhibitory concentration (IC50) was found to be 77 nM.

For `Cc1cccc(/C=N/Nc2cc(N3CCOCC3)c3nc(-c4ccc(N5CCCC5)cc4)cn3n2)c1` [Compound 7, N-(3-methyl-benzylidene)-N′-[8-morpholin-4-yl-2-(4-pyrrolidin-1-yl-phenyl)-imidazo[1,2-b]pyridazin-6-yl]-hydrazine], the IC50 was 40 nM.

Consider `Cc1cccc(/C=N/Nc2cc(N3CCOCC3)c3nc(-c4ccccc4)cn3n2)c1` [Compound 1, N-(3-methyl-benzylidene)-N′-(8-morpholin-4-yl-2-phenyl-imidazo[1,2-b]pyridazin-6-yl)-hydrazine], for which the half-inhibitory concentration (IC50) is 32 nM.

In the case of `CCCCC(C)c1cccc(/C=N/Nc2cc(N3CCOCC3)c3nc(-c4ccncc4)cn3n2)c1` (stereo not shown) [Compound 18, N-[3-(1-methyl-pentyl)-benzylidene]-N′-(8-morpholin-4-yl-2-pyridin-4-yl-imidazo[1,2-b]pyridazin-6-yl)-hydrazine], the half-inhibitory concentration (IC50) was determined as 1100 nM.
